Assay results from patent US11590116B2 (THERAVANCE BIOPHARMA R&D IP, LLC, priority 2019, dated 2023).

Columns and labels:
[1] = molecular target: T1, recombinant human ALK5 (TGF-βR1) protein (Homo sapiens, UniProt P36897); assay: Biochemical ALK5 (TGF-βR1) assay to measure pKi (LANCE Ultra ULight kinase assay); conditions: apparent pKi from pIC50 by Cheng-Prusoff, read-out: ALK5 pKi (converted)
T1 construct: purchased Life Technologies PR9075A
T1 sequence (P36897 34-503): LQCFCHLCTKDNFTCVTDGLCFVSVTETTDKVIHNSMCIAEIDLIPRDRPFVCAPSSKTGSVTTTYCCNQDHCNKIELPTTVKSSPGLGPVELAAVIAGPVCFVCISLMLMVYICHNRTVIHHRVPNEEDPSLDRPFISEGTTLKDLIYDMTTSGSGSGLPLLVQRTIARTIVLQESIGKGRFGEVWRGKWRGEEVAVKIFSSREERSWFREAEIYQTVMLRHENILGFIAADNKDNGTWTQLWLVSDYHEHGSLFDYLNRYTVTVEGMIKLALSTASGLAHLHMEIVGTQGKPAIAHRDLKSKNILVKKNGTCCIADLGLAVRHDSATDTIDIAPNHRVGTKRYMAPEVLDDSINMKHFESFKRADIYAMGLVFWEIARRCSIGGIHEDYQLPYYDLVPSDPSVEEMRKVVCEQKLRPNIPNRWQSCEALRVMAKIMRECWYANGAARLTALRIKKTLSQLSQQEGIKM
Method in brief: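 Compounds (10 μM to 25 pM) were preincubated 60 min at room temperature with enzyme, then reactions were started with ATP (125 μM stock, 5× final) and run 60 min at 37 °C. EDTA-containing Eu-anti-phospho-Topo IIα (Thr1342) antibody stopped the reaction; TR-FRET read at 665 nm. pIC50 from 4-parameter fit, converted to pKi via Cheng-Prusoff.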

[2] = system: TGF-β-stimulated SMAD3 phosphorylation in BEAS-2B cells; assay: Cellular ALK5 potency assay, inhibition of TGF-β stimulated pSMAD3 formation in BEAS-2B cells; type: cell-based; conditions: Homo sapiens; inhibition of TGF-β stimulated pSMAD3 formation, BEAS-2B cells; read-out: BEAS2B pIC50 (converted)
Method in brief: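 AlphaLISA pSMAD3 read-out, beads incubated overnight. Human BEAS-2B cells: 1 h compound preincubation (37 °C, 5% CO2), then 30 min TGF-β at 10 ng/mL final, immediate lysis. Values are pIC50 relative to stimulated, compound-free baseline.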

Ki [1] [nM] | SMILES | IC50 [2] [nM]
0.0398 to 0.316 | Cc1cccc(-c2[nH]cnc2-c2ccc3ncc(-c4cccc(C(=O)OCC5CNC5)c4)cc3c2)n1 [Compound 231, azetidin-3-ylmethyl 3-[6-[5-(6-methyl-2-pyridyl)-1H-imidazol-4-yl]-3-quinolyl]benzoate] | 25.1 to 158
0.0398 to 0.316 | Cc1cccc(-c2[nH]cnc2-c2ccc3ncc(C4=CCC(C(=O)O[C@@H]5CCN(C)C5)CC4)cc3c2)n1 (stereo partly drawn) [Compound 710, [(3R)-1-methylpyrrolidin-3-yl] 4-[6-[5-(6-methyl-2-pyridyl)-1H-imidazol-4-yl]-3-quinolyl]cyclohex-3-ene-1-carboxylate] | 25.1 to 158
0.0398 to 0.316 | Cc1cccc(-c2[nH]ncc2-c2ccc3nccc(C(=O)OC4CCNCC4)c3c2)n1 [Compound 1210, 4-piperidyl 6-[5-(6-methyl-2-pyridyl)-1H-pyrazol-4-yl]quinoline-4-carboxylate] | 25.1 to 158
0.0398 to 0.316 | Cc1cccc(-c2[nH]cnc2-c2ccc3ncc(C(=O)OCCC4CCNCC4)cc3c2)n1 [Compound 1048, 2-(4-piperidyl)ethyl 6-[5-(6-methyl-2-pyridyl)-1H-imidazol-4-yl]quinoline-3-carboxylate] | 25.1 to 158
0.0398 to 0.316 | Cc1cccc(-c2[nH]cnc2-c2ccc3ncc(C4=CC(N)CCC4)cc3c2)n1 (centres unmarked) [Compound 138, 3-[6-[5-(6-methyl-2-pyridyl)-1H-imidazol-4-yl]-3-quinolyl]cyclohex-2-en-1-amine] | 25.1 to 158
0.0398 to 0.316 | Cc1cccc(-c2[nH]cnc2-c2ccc3ncc(-c4cccc(C(=O)O[C@H]5CCNC5)n4)cc3c2)n1 [Compound 1089, [(3S)-pyrrolidin-3-yl] 6-[6-[5-(6-methyl-2-pyridyl)-1H-imidazol-4-yl]-3-quinolyl]pyridine-2-carboxylate] | 25.1 to 158
0.0398 to 0.316 | Cc1cccc(-c2[nH]cnc2-c2ccc3ncc(-c4ccc(C(=O)OCCN5CCC[C@@H](N)C5)cn4)cc3c2)n1 [Compound 1174, 2-[(3R)-3-amino-1-piperidyl]ethyl 6-[6-[5-(6-methyl-2-pyridyl)-1H-imidazol-4-yl]-3-quinolyl]pyridine-3-carboxylate] | 25.1 to 158
0.0398 to 0.316 | Cc1cccc(-c2[nH]cnc2-c2ccc3ncc(-c4ccc5c(c4)CCNC5)cc3c2)n1 [Compound 278, 6-[5-(6-methyl-2-pyridyl)-1H-imidazol-4-yl]-3-(1,2,3,4-tetrahydroisoquinolin-6-yl)quinoline] | < 20
0.398 to 3.16 | Cc1cccc(-c2[nH]cnc2-c2ccc3nccc(C(=O)OCC4CCNCC4)c3c2)n1 [Compound 1078, 4-piperidylmethyl 6-[5-(6-methyl-2-pyridyl)-1H-imidazol-4-yl]quinoline-4-carboxylate] | 25.1 to 158
0.0398 to 0.316 | Cc1cccc(-c2[nH]cnc2-c2ccc3ncc(-c4ccc(C(=O)O[C@@H]5CCNC5)cc4)cc3c2)n1 [Compound 716, [(3R)-pyrrolidin-3-yl] 4-[6-[5-(6-methyl-2-pyridyl)-1H-imidazol-4-yl]-3-quinolyl]benzoate] | 25.1 to 158
0.0398 to 0.316 | Cc1cccc(-c2[nH]cnc2-c2ccc3ncc(-c4ccc(C(=O)OC5CCNCC5)nc4)cc3c2)n1 [Compound 110, piperidin-4-yl 5-(6-(5-(6-methylpyridin-2-yl)-1H-imidazol-4-yl)quinolin-3-yl)picolinate] | 25.1 to 158
0.0398 to 0.316 | Cc1cccc(-c2[nH]cnc2-c2ccc3ncc(-c4ccc5c(c4)CC[C@@H]5N)cc3c2)n1 [Compound 1056, (1S)-5-[6-[5-(6-methyl-2-pyridyl)-1H-imidazol-4-yl]-3-quinolyl]indan-1-amine] | 25.1 to 158
0.0398 to 0.316 | Cc1cccc(-c2[nH]cnc2-c2ccc3ncc(NCC4CNC4)cc3c2)n1 [Compound 11, N-(azetidin-3-ylmethyl)-6-[5-(6-methyl-2-pyridyl)-1H-imidazol-4-yl]quinolin-3-amine] | 25.1 to 158

Continued, compound first:

SMILES | Ki [1] [nM] | IC50 [2] [nM]
Cc1cccc(-c2[nH]cnc2-c2ccc3ncc(C4CCC(N)CC4)cc3c2)n1 (centres unmarked) [Compound 142, 4-[6-[5-(6-methyl-2-pyridyl)-1H-imidazol-4-yl]-3-quinolyl]cyclohexanamine] | 0.398 to 3.16 | 25.1 to 158
Cc1cccc(-c2n[nH]cc2-c2ccc3ncc(N4CCC5(CCN(C(=O)OCc6ccccc6)C5)C4)cc3n2)n1 (centres unmarked) [Compound 124, benzyl 7-[6-[3-(6-methyl-2-pyridyl)-1H-pyrazol-4-yl]-1,5-naphthyridin-3-yl]-2,7-diazaspiro[4.4]nonane-2-carboxylate] | 0.0398 to 0.316 | 25.1 to 158
Cc1cccc(-c2nc3ccccn3c2-c2ccc3ncc(N4CCC(N5CCN(C)CC5)CC4)cc3c2)n1 [Compound 95, 3-[4-(4-methylpiperazin-1-yl)-1-piperidyl]-6-[2-(6-methyl-2-pyridyl)imidazo[1,2-a]pyridin-3-yl]quinoline] | 0.0398 to 0.316 | 25.1 to 158
Cc1cccc(-c2n[nH]cc2-c2ccc3ncc(NCC4CNC4)cc3n2)n1 [Compound 431, N-(azetidin-3-ylmethyl)-6-[3-(6-methyl-2-pyridyl)-1H-pyrazol-4-yl]-1,5-naphthyridin-3-amine] | 0.0398 to 0.316 | 1580 to 10000
Cc1cccc(-c2n[nH]cc2-c2ccc3ncc(N4CCCN(CC5CCCN5)CC4)cc3n2)n1 (centres unmarked) [Compound 274, 2-[3-(6-methyl-2-pyridyl)-1H-pyrazol-4-yl]-7-[4-(pyrrolidin-2-ylmethyl)-1,4-diazepan-1-yl]-1,5-naphthyridine] | 0.0398 to 0.316 | 200 to 1260
Cc1cccc(-c2[nH]ncc2-c2ccc3ncc(C(=O)O[C@H]4CCNC4)cc3n2)n1 [Compound 210, [(3S)-pyrrolidin-3-yl]6-[5-(6-methyl-2-pyridyl)-1H-pyrazol-4-yl]-1,5-naphthyridine-3-carboxylate] | 0.398 to 3.16 | 25.1 to 158
Cc1cccc(-c2n[nH]cc2-c2ccc3nccc(CN(C)C)c3n2)n1 [Compound 830, N,N-dimethyl-1-[6-[3-(6-methyl-2-pyridyl)-1H-pyrazol-4-yl]-1,5-naphthyridin-4-yl]methanamine] | 3.98 to 31.6 | 25.1 to 158
CN[C@H]1CC[C@H](OC(=O)c2cnc3ccc(-c4cn[nH]c4-c4cccc(C)n4)cc3c2)CC1 [Compound 1221, [4-(methylamino)cyclohexyl] 6-[5-(6-methyl-2-pyridyl)-1H-pyrazol-4-yl]quinoline-3-carboxylate] | 0.0398 to 0.316 | < 20
CNc1cnc2ccc(-c3c[nH]nc3-c3cccc(C)n3)nc2c1 [Compound 106, N-methyl-6-[3-(6-methyl-2-pyridyl)-1H-pyrazol-4-yl]-1,5-naphthyridin-3-amine] | 0.0398 to 0.316 | < 20
Cc1nc(-c2n[nH]cc2-c2ccc3ncc(-c4nc5c(s4)CNCC5)cc3n2)ccc1F [Compound 329, 2-[6-[3-(5-fluoro-6-methyl-2-pyridyl)-1H-pyrazol-4-yl]-1,5-naphthyridin-3-yl]-4,5,6,7-tetrahydrothiazolo[5,4-c]pyridine] | 0.0398 to 0.316 | 25.1 to 158
Cc1cccc(-c2n[nH]cc2-c2ccc3ncc(-c4c(C)n[nH]c4C)cc3n2)n1 [Compound 366, 7-(3,5-dimethyl-1H-pyrazol-4-yl)-2-[3-(6-methyl-2-pyridyl)-1H-pyrazol-4-yl]-1,5-naphthyridine] | 0.0398 to 0.316 | 200 to 1260
Cc1cccc(-c2[nH]cnc2-c2ccc3ncc(C4=CCNC4)cc3n2)n1 [Compound 410, 7-(2,5-dihydro-1H-pyrrol-3-yl)-2-[5-(6-methyl-2-pyridyl)-1H-imidazol-4-yl]-1,5-naphthyridine] | 0.0398 to 0.316 | 25.1 to 158
Cc1nc(-c2nc3ccccn3c2-c2ccc3ncc(-c4cc5n(n4)CCNC5)cc3n2)ccc1F [Compound 558, 2-[2-(5-fluoro-6-methyl-2-pyridyl)imidazo[1,2-a]pyridin-3-yl]-7-(4,5,6,7-tetrahydropyrazolo[1,5-a]pyrazin-2-yl)-1,5-naphthyridine] | 0.0398 to 0.316 | 25.1 to 158
Cc1nc(-c2n[nH]cc2-c2ccc3ncc(-c4cnn(C[C@H]5CCC[C@H](N)C5)c4)cc3n2)ccc1F (racemic) [Compound 395, rac-(1S,3S)-3-[[4-[6-[3-(5-fluoro-6-methyl-2-pyridyl)-1H-pyrazol-4-yl]-1,5-naphthyridin-3-yl]pyrazol-1-yl]methyl]cyclohexanamine] | < 0.0316 | 25.1 to 158
Cc1nc(-c2n[nH]cc2-c2ccc3ncc(-c4cnn(C[C@H]5CC[C@H](N)CC5)c4)cc3n2)ccc1F [Compound 551, 4-[[4-[6-[3-(5-fluoro-6-methyl-2-pyridyl)-1H-pyrazol-4-yl]-1,5-naphthyridin-3-yl]pyrazol-1-yl]methyl]cyclohexanamine] | < 0.0316 | 25.1 to 158
